This is an account of results in patent US6391305B1, “Conjugates useful in the treatment of prostate cancer” (priority 1999, dated 2002).

Data set [1] deals with T1, enzymatically active free PSA (Homo sapiens, UniProt P07288).
T1 construct: required for 50% cleavage of the noted oligopeptides with enzymatically active free PSA
Nature of the data set: Recognition (cleavage) of oligopeptide-doxorubicin conjugates by free PSA, HPLC. The format is biochemical. The conditions noted are these: DOX conjugate; for Time to 50% Substrate Cleavage by York PSA: PSA digestion buffer pH7.4, 140 mM NaCl, molar ratio to PSA 100 to 1. As for the experimental part: If no salt is indicated for the conjugate, the free conjugate was tested.

A short description of data set [2]: Solubility remarks (INSOLUBLE, PS, PP) printed beside the assay results of Tables 2-4. In kind it is physicochemical. The note with it: DOX conjugate in cytotoxicity test.
The subject of data set [3] is LNCap prostate tumor cells. Kind of data set: In vitro cytotoxicity, Alamar Blue assay, LNCaP. In kind it is cell-based. The note with it: 72 HRS, read-out: LNCaP Cell Kill in 72 HRS, {48 HRS} EC 50. As for the experimental part: (§1) The cytotoxicities of the cleaveable oligopeptide-doxorubicin conjugates, prepared as described in Examples 3-6, against a line of cells which is known to be killed by unmodified doxorubicin was assessed with an Alamar Blue assay. Specifically, cell cultures of LNCap prostate tumor cells or DuPRO cells in 96 well plates was diluted with medium containing various concentrations of a given conjugate (final plate well volume of 200 μl ). The cells were incubated for 3 days at 37° C., 20 μl of Alamar Blue is added to the assay well. The cells were further incubated and the assay plates were read on a EL-310 ELISA reader at the dual wavelengths of 570 and 600 nm at 4 and 7 hours after addition of Alamar Blue. Relative percentage viability at the various concentration of conjugate tested was then calculated versus control (no conjugate) cultures. If no salt is indicated, the free conjugate was tested.

The subject of a further data set is DuPRO cells. Kind of data set: In vitro cytotoxicity, Alamar Blue assay, DuPRO. In kind it is cell-based. The note with it: value in parentheses beside the LNCaP value, read-out: DuPRO cell kill EC 50. As for the experimental part:
as §1

[4] abbreviates: listed as PEG(2)-ShRYQ-SL-DOX(3′).

Where two headings read alike, the source gives them in different places. Non-standard residues stand in square brackets, D forms with d. Residues, ends and D or L forms follow the SMILES beside them. *: point of attachment. Doxorubicin(3'-N) = COc1cccc2c1C(=O)c1c(O)c3c(c(O)c1C2=O)C[C@@](O)(C(=O)CO)C[C@@H]3O[C@H]1C[C@H](N*)[C@H](O)[C@H](C)O1; Dox = doxorubicin, linked through its 3'-amine to the C-terminal carbonyl; Decanoyl(3,6,9-trioxa) = COCCOCCOCC(=O)*; Glyceroyl(2S) = O=C([C@@H](O)CO)*; Glyceroyl(2R) = O=C([C@H](O)CO)*; hArg = N=C(N)NCCCC[C@H](N)C(=O)O; X1 = O=C([C@H](O)[C@@H](O)CO)*; Chg = N[C@H](C(=O)O)C1CCCCC1; hSer = N[C@@H](CCO)C(=O)O; X3 = O=C(C(O)CO)* Bounds are passed on as bounds.

T1 sequence (P07288 25-261): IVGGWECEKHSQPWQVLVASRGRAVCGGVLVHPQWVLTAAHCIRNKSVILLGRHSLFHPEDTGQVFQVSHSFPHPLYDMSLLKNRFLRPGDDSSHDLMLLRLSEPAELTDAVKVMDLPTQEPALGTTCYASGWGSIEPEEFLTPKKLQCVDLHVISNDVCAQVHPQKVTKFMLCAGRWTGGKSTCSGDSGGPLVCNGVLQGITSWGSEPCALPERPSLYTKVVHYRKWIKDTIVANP

With `COCCOCCOCC(=O)N[C@@H](CCCCNC(=N)N)C(=O)N[C@H](C(=O)N[C@@H](CCC(N)=O)C(=O)N[C@@H](CO)C(=O)N[C@@H](CC(C)C)C(=O)N[C@H]1C[C@H](O[C@H]2C[C@](O)(C(=O)CO)Cc3c(O)c4c(c(O)c32)C(=O)c2c(OC)cccc2C4=O)O[C@@H](C)[C@H]1O)C1CCCCC1` [PEG(2)-HomoRChgQ-SL-DOX (3′), PEG(2)-hArgChgGln-SerLeu-DOX (3′)] ({Decanoyl(3,6,9-trioxa)}-[hArg][Chg]QSL-{Doxorubicin(3'-N)}), the “Substrate cleavage by York PSA at 4 HOUR” value in data set [1] (4 hours) was determined as 12%. Also, the “Solubility remark in Table 4” value in data set [2] is listed as “INSOLUBLE”.

Regarding `COCCOCCOCC(=O)N[C@@H](CO)C(=O)N[C@@H](CCCCNC(=N)N)C(=O)N[C@@H](Cc1ccc(O)cc1)C(=O)N[C@@H](CCC(N)=O)C(=O)N[C@@H](CO)C(=O)N[C@@H](CC(C)C)C(=O)N[C@H]1C[C@H](O[C@H]2C[C@](O)(C(=O)CO)Cc3c(O)c4c(c(O)c32)C(=O)c2c(OC)cccc2C4=O)O[C@@H](C)[C@H]1O` [PEG(2)-SHomoRYQ-SL-DOX(3′), PEG(2)-SerhArgTyrGln-SerLeu-DOX(3′)] ({Decanoyl(3,6,9-trioxa)}-S[hArg]YQSL-{Doxorubicin(3'-N)}), the “Time to 50% Substrate Cleavage by York PSA” value in data set [1] turned out to be 35 min. The figures for the EC50 (in data set [3] (setting [4]); in the data set on DuPRO cells (setting [4])) were 4.5 µM and more than 100 µM, respectively.

Turning to “N-[2-{2-(2-methoxyethoxy)ethoxy}acetyl]-Ser-Ser-Ser-Chg-Gln-Ser-Leu-Dox ({Decanoyl(3,6,9-trioxa)}-SSS[Chg]QSL-Dox) [PEG(2)-SSSChgQ-SL-DOX (3′)]”, in data set [1], the “Time to 50% Substrate Cleavage by York PSA” value turned out to be 60 min. The EC50 was 10 µM in data set [3] and more than 100 µM in the data set on DuPRO cells.

`COc1cccc2c1C(=O)c1c(O)c3c(c(O)c1C2=O)C[C@@](O)(C(=O)CO)C[C@@H]3O[C@H]1C[C@H](NC(=O)[C@H](CC(C)C)NC(=O)[C@H](CO)NC(=O)[C@H](CCC(N)=O)NC(=O)[C@@H](NC(=O)[C@H](CO)NC(=O)[C@H](CO)NC(=O)[C@H](CCCCNC(=N)N)NC(=O)[C@@H](O)CO)C2CCCCC2)[C@H](O)[C@H](C)O1` [(l)(2,3-dihydroxypropionyl)hArgSerSerChgGlnSerLeu-DOX (3′)] ({Glyceroyl(2S)}-[hArg]SS[Chg]QSL-{Doxorubicin(3'-N)}): in data set [1], the “Time to 50% Substrate Cleavage by York PSA” value came out at 12 min. In addition, the EC50 in data set [3] was 7.5 µM; in the data set with DuPRO cells, more than 100 µM.

Regarding `COCCOCCOCC(=O)N[C@@H](CO)C(=O)N[C@@H](CCCCNC(=N)N)C(=O)N[C@H](C(=O)N[C@@H](CCC(N)=O)C(=O)N[C@@H](CO)C(=O)N[C@@H](CC(C)C)C(=O)N[C@H]1C[C@H](O[C@H]2C[C@](O)(C(=O)CO)Cc3c(O)c4c(c(O)c32)C(=O)c2c(OC)cccc2C4=O)O[C@@H](C)[C@H]1O)C1CCCCC1` [PEG(2)-SHomoRChgQ-SL-DOX (3′), PEG(2)-SerhArgChgGln-SerLeu-DOX (3′)] ({Decanoyl(3,6,9-trioxa)}-S[hArg][Chg]QSL-{Doxorubicin(3'-N)}), the “Time to 50% Substrate Cleavage by York PSA” value in data set [1] came to 25 min. Moreover, the EC50 in data set [3] was 8.1 µM; with DuPRO cells, more than 100 µM.

Regarding `COc1cccc2c1C(=O)c1c(O)c3c(c(O)c1C2=O)C[C@@](O)(C(=O)CO)C[C@@H]3O[C@H]1C[C@H](NC(=O)[C@H](CC(C)C)NC(=O)[C@H](CO)NC(=O)[C@H](CCC(N)=O)NC(=O)[C@@H](NC(=O)[C@H](CO)NC(=O)[C@H](CO)NC(=O)[C@@H](O)CO)C2CCCCC2)[C@H](O)[C@H](C)O1` [(l)(2,3-dihydroxypropionyl)-SerSerChgGln-SerLeu-DOX (3′)] ({Glyceroyl(2S)}-SS[Chg]QSL-{Doxorubicin(3'-N)}), the “Time to 50% Substrate Cleavage by York PSA” value in data set [1] is 25 min. Besides, the results for the EC50 (in data set [3]; in the data set on DuPRO cells) were 13 µM and more than 100 µM, respectively.

Turning to `COc1cccc2c1C(=O)c1c(O)c3c(c(O)c1C2=O)C[C@@](O)(C(=O)CO)C[C@@H]3O[C@H]1C[C@H](NC(=O)[C@H](CC(C)C)NC(=O)[C@H](CO)NC(=O)[C@H](CCC(N)=O)NC(=O)[C@@H](NC(=O)[C@H](CO)NC(=O)[C@H](CO)NC(=O)[C@H](CO)NC(=O)[C@H](O)CO)C2CCCCC2)[C@H](O)[C@H](C)O1` [N-2(R)-2,3-dihydroxypropionyl-Ser-Ser-Ser-Chg-Gln-Ser-Leu-Dox] ({Glyceroyl(2R)}-SSS[Chg]QSL-{Doxorubicin(3'-N)}), in data set [1], the “Time to 50% Substrate Cleavage by York PSA” value was determined as 55 min. The EC50 in data set [3] was 5.8 µM; with DuPRO cells, more than 100 µM.

Regarding `COc1cccc2c1C(=O)c1c(O)c3c(c(O)c1C2=O)C[C@@](O)(C(=O)CO)C[C@@H]3O[C@H]1C[C@H](NC(=O)[C@H](CC(C)C)NC(=O)[C@H](CO)NC(=O)[C@H](CCC(N)=O)NC(=O)[C@@H](NC(=O)[C@H](CCCCNC(=N)N)NC(=O)[C@H](CO)NC(=O)[C@@H](O)CO)C2CCCCC2)[C@H](O)[C@H](C)O1` [(l) 2,3-dihydroxypropionyl-SerhArgChgGln-SerLeu-DOX (3′)] ({Glyceroyl(2S)}-S[hArg][Chg]QSL-{Doxorubicin(3'-N)}), the “Time to 50% Substrate Cleavage by York PSA” value in data set [1] came out at 15 min. Also, the EC50 is 9.4 µM in data set [3] and more than 100 µM in the data set on DuPRO cells.

For `COc1cccc2c1C(=O)c1c(O)c3c(c(O)c1C2=O)C[C@@](O)(C(=O)CO)C[C@@H]3O[C@H]1C[C@H](NC(=O)[C@H](CC(C)C)NC(=O)[C@H](CO)NC(=O)[C@H](CCC(N)=O)NC(=O)[C@@H](NC(=O)[C@H](CCCCNC(=N)N)NC(=O)[C@H](CO)NC(=O)[C@H](O)[C@@H](O)CO)C2CCCCC2)[C@H](O)[C@H](C)O1` [(2R,3S) 2,3,4-trihydroxybutanoyl-SerhArgChgGln-SerLeu-DOX (3′)] (X1-S[hArg][Chg]QSL-{Doxorubicin(3'-N)}), in data set [1], the “Time to 50% Substrate Cleavage by York PSA” value amounted to 45 min. In addition, the EC50 in data set [3] was 14.1 µM; with DuPRO cells, more than 100 µM.

For `COc1cccc2c1C(=O)c1c(O)c3c(c(O)c1C2=O)C[C@@](O)(C(=O)CO)C[C@@H]3O[C@H]1C[C@H](NC(=O)[C@H](CC(C)C)NC(=O)[C@H](CO)NC(=O)[C@H](CCC(N)=O)NC(=O)[C@@H](NC(=O)[C@H](CO)NC(=O)[C@H](CO)NC(=O)[C@H](CCO)NC(=O)C(O)CO)C2CCCCC2)[C@H](O)[C@H](C)O1` (some centres unmarked) [(2,3-dihydroxypropionyl)-hSerSerSerChgGln-SerLeu-DOX (3′)] (X3-[hSer]SS[Chg]QSL-{Doxorubicin(3'-N)}), the “Time to 50% Substrate Cleavage by York PSA” value in data set [1] was determined as 35 min. For the same molecule, the figures for the EC50 (in data set [3]; with DuPRO cells) were 5.1 µM and 90 µM, respectively.

Regarding `COc1cccc2c1C(=O)c1c(O)c3c(c(O)c1C2=O)C[C@@](O)(C(=O)CO)C[C@@H]3O[C@H]1C[C@H](NC(=O)[C@@H](CC(C)C)NC(=O)[C@H](CO)NC(=O)[C@H](CCC(N)=O)NC(=O)[C@@H](NC(=O)[C@H](CO)NC(=O)[C@H](CO)NC(=O)[C@@H](O)CO)C2CCCCC2)[C@H](O)[C@H](C)O1` [(l)(2,3-dihydroxypropionyl)SerSerChgGln-Ser(dLeu)-DOX (3′)] ({Glyceroyl(2S)}-SS[Chg]QS[dL]-{Doxorubicin(3'-N)}), the “Substrate cleavage by York PSA at 3 HOUR” value in data set [1] (3 hours) is recorded as 22%. In addition, the EC50 (in data set [3]; in the data set with DuPRO cells) was more than 100 µM each time.
